Results published in patent US9738634B2, “Heterocyclic amide compound and herbicide” (SYNGENTA PARTICIPATIONS AG, priority 2013, dated 2017).

How the values were obtained:
Format in all cases: in vivo
[1] = tested on: wheat; assay: Test Example 3: soil treatment, effect on crop; e: wheat; conditions: soil treatment, treatment dosage 320 g/ha
Procedure, shortened: (§1)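 Crop and weed responses were judged three weeks after a uniform surface spray of the water-diluted emulsion at the given g/ha rate. Seeds sat beneath about 1.5 cm of sterilized diluvial soil, and boxes stood in a greenhouse at 25 to 30° C.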

[2] = tested on: wild oat; assay: Test Example 3: weedkilling efficacy through soil treatment; G: wild oat; conditions: soil treatment, treatment dosage 320 g/ha
Procedure, shortened: as §1

[3] = tested on: chickweed; assay: Test Example 3: weedkilling efficacy through soil treatment; N: chickweed; conditions: soil treatment, treatment dosage 320 g/ha
Procedure, shortened: as §1

[4] = tested on: fig-leafed goosefoot; assay: Test Example 3: weedkilling efficacy through soil treatment; M: fig-leafed goosefoot; conditions: soil treatment, treatment dosage 320 g/ha
Procedure, shortened: as §1

[5] = tested on: catchweed; assay: Test Example 3: weedkilling efficacy through soil treatment; O: catchweed; conditions: soil treatment, treatment dosage 320 g/ha
Procedure, shortened: as §1

[6] = tested on: black-grass; assay: Test Example 3: weedkilling efficacy through soil treatment; H: black-grass; conditions: soil treatment, treatment dosage 320 g/ha
Procedure, shortened: as §1

[7] = tested on: soybean; assay: Test Example 3: soil treatment, effect on crop; d: soybean; conditions: soil treatment, treatment dosage 320 g/ha
Procedure, shortened: as §1

[8] = tested on: oval-leafed pondweed; assay: Test Example 2: weedkilling efficacy, growth period weed treatment in the submerged state; C: oval-leafed pondweed; conditions: treatment dosage 320 g/ha
Procedure, shortened: (§2)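 Barnyard grass, bulrush and oval-leafed pondweed sown in alluvial soil under 4 cm flooding, greenhouse 25 to 30° C. At 1-2 leaf stage, water-diluted emulsion applied to the water surface at stated g/ha dosages; effects scored 3 weeks later.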

[9] = tested on: barnyard grass; assay: Test Example 3: weedkilling efficacy through soil treatment; F: barnyard grass; conditions: soil treatment, treatment dosage 320 g/ha
Procedure, shortened: as §1

[10] = tested on: bulrush; assay: Test Example 2: weedkilling efficacy, growth period weed treatment in the submerged state; B: bulrush; conditions: treatment dosage 320 g/ha
Procedure, shortened: as §2

[11] = tested on: barnyard grass; assay: Test Example 1: weedkilling efficacy, preemergent weed treatment in the submerged state; A: barnyard grass; conditions: treatment dosage 320 g/ha
Procedure, shortened: (§3)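 Visual scores against set criteria were taken 3 weeks after treatment. Compounds, as diluted emulsions at specified g/ha, went onto the water surface of 4 cm-flooded alluvial soil pots on the day weeds were sown and 2.5-leaf rice was transplanted; greenhouse held 25–30 °C.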

[12] = tested on: corn; assay: Test Example 3: soil treatment, effect on crop; c: corn; conditions: soil treatment, treatment dosage 320 g/ha
Procedure, shortened: as §1

[13] = tested on: Indian mallow; assay: Test Example 3: weedkilling efficacy through soil treatment; K: Indian mallow; conditions: soil treatment, treatment dosage 320 g/ha
Procedure, shortened: as §1

[14] = tested on: redroot pigweed; assay: Test Example 3: weedkilling efficacy through soil treatment; L: redroot pigweed; conditions: soil treatment, treatment dosage 320 g/ha
Procedure, shortened: as §1

[15] = tested on: directly sown rice; assay: Test Example 3: soil treatment, effect on crop; b: directly sown rice; conditions: soil treatment, treatment dosage 320 g/ha
Procedure, shortened: as §1

[16] = tested on: crabgrass; assay: Test Example 3: weedkilling efficacy through soil treatment; D: crabgrass; conditions: soil treatment, treatment dosage 320 g/ha
Procedure, shortened: as §1

[17] = tested on: beet; assay: Test Example 3: soil treatment, effect on crop; f: beet; conditions: soil treatment, treatment dosage 320 g/ha
Procedure, shortened: as §1

[18] = tested on: Italian ryegrass; assay: Test Example 3: weedkilling efficacy through soil treatment; I: Italian ryegrass; conditions: soil treatment, treatment dosage 320 g/ha
Procedure, shortened: as §1

[19] = tested on: barnyard grass; assay: Test Example 2: weedkilling efficacy, growth period weed treatment in the submerged state; A: barnyard grass; conditions: treatment dosage 320 g/ha
Procedure, shortened: as §2

[20] = tested on: oval-leafed pondweed; assay: Test Example 1: weedkilling efficacy, preemergent weed treatment in the submerged state; C: oval-leafed pondweed; conditions: treatment dosage 320 g/ha
Procedure, shortened: as §3

[21] = tested on: green foxtail; assay: Test Example 3: weedkilling efficacy through soil treatment; E: green foxtail; conditions: soil treatment, treatment dosage 320 g/ha
Procedure, shortened: as §1

[22] = tested on: common wind-grass; assay: Test Example 3: weedkilling efficacy through soil treatment; J: common wind-grass; conditions: soil treatment, treatment dosage 320 g/ha
Procedure, shortened: as §1

[23] = tested on: birds-eye speedwell; assay: Test Example 3: weedkilling efficacy through soil treatment; p: birds-eye speedwell; conditions: soil treatment, treatment dosage 320 g/ha
Procedure, shortened: as §1

[24] = tested on: bulrush; assay: Test Example 1: weedkilling efficacy, preemergent weed treatment in the submerged state; B: bulrush; conditions: treatment dosage 320 g/ha
Procedure, shortened: as §3

[25] = tested on: transplanted rice; assay: Test Example 1: preemergent weed treatment in the submerged state, effect on crop; a: transplanted rice; conditions: treatment dosage 320 g/ha
Procedure, shortened: as §3

[26] = tested on: rapeseed; assay: Test Example 3: soil treatment, effect on crop; g: rapeseed; conditions: soil treatment, treatment dosage 320 g/ha
Procedure, shortened: as §1

SMILES | e: wheat, effect on crop grade [1] | G: wild oat, weedkilling efficacy grade [2] | N: chickweed, weedkilling efficacy grade [3] | M: fig-leafed goosefoot, weedkilling efficacy grade [4] | O: catchweed, weedkilling efficacy grade [5] | H: black-grass, weedkilling efficacy grade [6] | d: soybean, effect on crop grade [7] | C (oval-leafed pondweed) weedkilling efficacy grade [8] | F: barnyard grass, weedkilling efficacy grade [9] | B (bulrush) weedkilling efficacy grade [10] | A: barnyard grass, weed kill grade [11] | c: corn, effect on crop grade [12] | K: Indian mallow, weedkilling efficacy grade [13] | L: redroot pigweed, weedkilling efficacy grade [14] | b: directly sown rice, effect on crop grade [15] | D: crabgrass, weedkilling efficacy grade [16] | f: beet, effect on crop grade [17] | I: Italian ryegrass, weedkilling efficacy grade [18] | A (barnyard grass) weedkilling efficacy grade [19] | C: oval-leafed pondweed, weed kill grade [20] | further results
CSc1nnc(NC(=O)C(C)(C)N2COCN(c3ccccc3)C2=O)s1 [A-1-15] | 0 (weed kill ratio 5% or less (practically no effect)) | 0 (weed kill ratio 5% or less (practically no effect)) | 0 (weed kill ratio 5% or less (practically no effect)) | 0 (weed kill ratio 5% or less (practically no effect)) | 0 (weed kill ratio 5% or less (practically no effect)) | 1 (weed kill ratio 5% or more, less than 20%) | 0 (weed kill ratio 5% or less (practically no effect)) | 5 (weed kill ratio 90% or more, (practically complete withering)) | 0 (weed kill ratio 5% or less (practically no effect)) | 5 (weed kill ratio 90% or more, (practically complete withering)) | 4 (weed kill ratio 70% or more, less than 90%) | 0 (weed kill ratio 5% or less (practically no effect)) | 0 (weed kill ratio 5% or less (practically no effect)) | 0 (weed kill ratio 5% or less (practically no effect)) | 0 (weed kill ratio 5% or less (practically no effect)) | 0 (weed kill ratio 5% or less (practically no effect)) | 0 (weed kill ratio 5% or less (practically no effect)) | 4 (weed kill ratio 70% or more, less than 90%) | 3 (weed kill ratio 40% or more, less than 70%) | 5 (weed kill ratio 90% or more, (practically complete withering)) | E: green foxtail, weedkilling efficacy grade [21]: 0 (weed kill ratio 5% or less (practically no effect)); J: common wind-grass, weedkilling efficacy grade [22]: 5 (weed kill ratio 90% or more, (practically complete withering)); P: birds-eye speedwell, weedkilling efficacy grade [23]: 3 (weed kill ratio 40% or more, less than 70%); B: bulrush, weed kill grade [24]: 5 (weed kill ratio 90% or more, (practically complete withering)); a: transplanted rice, effect on crop grade [25]: 0 (weed kill ratio 5% or less (practically no effect)); g: rapeseed, effect on crop grade [26]: 1 (weed kill ratio 5% or more, less than 20%)
Cc1nsc(NC(=O)C(C)(C)N2COCN(c3ccccc3)C2=O)n1 [A-1-18] | 0 (weed kill ratio 5% or less (practically no effect)) | 4 (weed kill ratio 70% or more, less than 90%) | 2 (weed kill ratio 20% or more, less than 40%) | 4 (weed kill ratio 70% or more, less than 90%) | 0 (weed kill ratio 5% or less (practically no effect)) | 5 (weed kill ratio 90% or more, (practically complete withering)) | 4 (weed kill ratio 70% or more, less than 90%) | 5 (weed kill ratio 90% or more, (practically complete withering)) | 4 (weed kill ratio 70% or more, less than 90%) | 5 (weed kill ratio 90% or more, (practically complete withering)) | 5 (weed kill ratio 90% or more, (practically complete withering)) | 0 (weed kill ratio 5% or less (practically no effect)) | 0 (weed kill ratio 5% or less (practically no effect)) | 4 (weed kill ratio 70% or more, less than 90%) | 5 (weed kill ratio 90% or more, (practically complete withering)) | 5 (weed kill ratio 90% or more, (practically complete withering)) | 1 (weed kill ratio 5% or more, less than 20%) | 5 (weed kill ratio 90% or more, (practically complete withering)) | 3 (weed kill ratio 40% or more, less than 70%) | 5 (weed kill ratio 90% or more, (practically complete withering)) | E: green foxtail, weedkilling efficacy grade [21]: 5 (weed kill ratio 90% or more, (practically complete withering)); J: common wind-grass, weedkilling efficacy grade [22]: 5 (weed kill ratio 90% or more, (practically complete withering)); P: birds-eye speedwell, weedkilling efficacy grade [23]: 4 (weed kill ratio 70% or more, less than 90%); B: bulrush, weed kill grade [24]: 5 (weed kill ratio 90% or more, (practically complete withering)); a: transplanted rice, effect on crop grade [25]: 2 (weed kill ratio 20% or more, less than 40%); g: rapeseed, effect on crop grade [26]: 4 (weed kill ratio 70% or more, less than 90%)
CC(C)(C(=O)Nc1ccc(F)cn1)N1COCN(c2ccccc2)C1=O [A-2-04] | 0 (weed kill ratio 5% or less (practically no effect)) | 0 (weed kill ratio 5% or less (practically no effect)) | 2 (weed kill ratio 20% or more, less than 40%) | 0 (weed kill ratio 5% or less (practically no effect)) | 0 (weed kill ratio 5% or less (practically no effect)) | 2 (weed kill ratio 20% or more, less than 40%) | 0 (weed kill ratio 5% or less (practically no effect)) | 4 (weed kill ratio 70% or more, less than 90%) | 3 (weed kill ratio 40% or more, less than 70%) | 5 (weed kill ratio 90% or more, (practically complete withering)) | 4 (weed kill ratio 70% or more, less than 90%) | 0 (weed kill ratio 5% or less (practically no effect)) | 0 (weed kill ratio 5% or less (practically no effect)) | 0 (weed kill ratio 5% or less (practically no effect)) | 0 (weed kill ratio 5% or less (practically no effect)) | 3 (weed kill ratio 40% or more, less than 70%) | 0 (weed kill ratio 5% or less (practically no effect)) | 3 (weed kill ratio 40% or more, less than 70%) | 5 (weed kill ratio 90% or more, (practically complete withering)) | 4 (weed kill ratio 70% or more, less than 90%) | E: green foxtail, weedkilling efficacy grade [21]: 3 (weed kill ratio 40% or more, less than 70%); J: common wind-grass, weedkilling efficacy grade [22]: 4 (weed kill ratio 70% or more, less than 90%); P: birds-eye speedwell, weedkilling efficacy grade [23]: 0 (weed kill ratio 5% or less (practically no effect)); B: bulrush, weed kill grade [24]: 5 (weed kill ratio 90% or more, (practically complete withering)); a: transplanted rice, effect on crop grade [25]: 0 (weed kill ratio 5% or less (practically no effect)); g: rapeseed, effect on crop grade [26]: 0 (weed kill ratio 5% or less (practically no effect))
